Values of other authors, collected in patent publication EP4603080A1 (Adocia, priority 2024, dated 2025).

Settings: read-out: EC50value; potency, WO2022129526 Assay 2, Tables 4b and 4c

## N-alpha-[(S)-4-Carboxy-4-(19-carboxynonadecanoylamino)butyryl]-[Glu14,Arg17,Pro37]-pramlintide [cagrilintide]
  EC50: ~0.011 nM
